Molecules are shown by their SMILES. Where a name gives a salt, the structure may show the parent alone.

On to `CC(=O)N1CCN(Cc2cnc(-c3ccc(C(CC4CCOCC4)c4ccc(S(=O)(=O)C5CC5)cc4)[nH]3)s2)CC1.Cl` (stereo not drawn), for which the melting point was 156 to 158 °C. Then `Cl.O=C1CCN(Cc2cnc(-c3ccc(C(CC4CCOCC4)c4ccc(S(=O)(=O)C5CC5)cc4)[nH]3)s2)CC1` (stereo not drawn), with 146 to 148 °C; and `O=C(O)CCc1cnc(-c2ccc(C(CC3CCOCC3)c3ccc(S(=O)(=O)C4CC4)cc3)[nH]2)s1` (stereo not drawn) (as salt: calcium) [Example 163, 3-[2-(5-{1-[4-(cyclopropylsulfonyl)phenyl]-2-(tetrahydro-2H-pyran-4-yl)ethyl}-1H-pyrrol-2-yl)-1,3-thiazol-5-yl]propanoic acid 1/2 calcium salt], with > 194 °C (dec.); and `CC(c1cnc(-c2ccc(C(CC3CCOCC3)c3ccc(S(=O)(=O)C4CC4)cc3)[nH]2)s1)N(C)C` (stereo not drawn) (as salt: hydrochloride) [Example 157, 1-[2-(5-{1-[4-(cyclopropylsulfonyl)phenyl]-2-(tetrahydro-2H-pyran-4-yl)ethyl}-1H-pyrrol-2-yl)-1,3-thiazol-5-yl]-N,N-dimethylethanamine dihydrochloride], with 147 to 148 °C. Then `O=C1CC[C@H](CC(c2ccc(S(=O)(=O)C3CC3)cc2)c2ccc(-c3nccs3)[nH]2)C1` (stereo partly drawn) [Example 102, (3R)-3-{2-[4-(cyclopropylsulfonyl)phenyl]-2-[5-(1,3-thiazol-2-yl)-1H-pyrrol-2-yl]ethyl}cyclopentanone], with 165 to 167 °C; and `CCOC(=O)c1cc(-c2nccs2)[nH]c1C(CC1CCOCC1)c1ccc(S(=O)(=O)C2CC2)cc1` (stereo not drawn) [Example 103, Ethyl 2-{1-[4-(cyclopropylsulfonyl)phenyl]-2-(tetrahydro-2H-pyran-4-yl)ethyl}-5-(1,3-thiazol-2-yl)-1H-pyrrole-3-carboxylate], with 178 to 179 °C; and `O=C(O)c1cc(-c2nccs2)[nH]c1C(CC1CCOCC1)c1ccc(S(=O)(=O)C2CC2)cc1` (stereo not drawn) [Example 104, 2-{1-[4-(cyclopropylsulfonyl)phenyl]-2-(tetrahydro-2H-pyran-4-yl)ethyl}-5-(1,3-thiazol-2-yl)-1H-pyrrole-3-carboxylic acid], with 153 to 155 °C. Then `CN(C)C(=O)c1cc(-c2nccs2)[nH]c1C(CC1CCOCC1)c1ccc(S(=O)(=O)C2CC2)cc1` (stereo not drawn) [Example 105, 2-{1-[4-(cyclopropylsulfonyl)phenyl]-2-(tetrahydro-2H-pyran-4-yl)ethyl}-N,N-dimethyl-5-(1,3-thiazol-2-yl)-1H-pyrrole-3-carboxamide], with 180 to 182 °C; and `NC(=O)c1cc(-c2nccs2)[nH]c1C(CC1CCOCC1)c1ccc(S(=O)(=O)C2CC2)cc1` (stereo not drawn) [Example 106, 2-{1-[4-(cyclopropylsulfonyl)phenyl]-2-(tetrahydro-2H-pyran-4-yl)ethyl}-5-(1,3-thiazol-2-yl)-1H-pyrrole-3-carboxamide], with 241 to 243 °C; and `N#Cc1cc(-c2nccs2)[nH]c1C(CC1CCOCC1)c1ccc(S(=O)(=O)C2CC2)cc1` (stereo not drawn) [Example 107, 2-{1-[4-(cyclopropylsulfonyl)phenyl]-2-(tetrahydro-2H-pyran-4-yl)ethyl}-5-(1,3-thiazol-2-yl)-1H-pyrrole-3-carbonitrile], with 114 to 116 °C. In turn, `CC(C)(O)COc1ccc(-c2ccc(C(CC3CCOCC3)c3ccc(S(=O)(=O)C4CC4)cc3)[nH]2)nc1` (stereo not drawn) [Example 116, 1-{[6-(5-{1-[4-(cyclopropylsulfonyl)phenyl]-2-(tetrahydro-2H-pyran-4-yl)ethyl}-1H-pyrrol-2-yl)pyridin-3-yl]oxy}-2-methylpropan-2-ol] returned a melting point of 110 to 112 °C. In turn, `CC(O)COc1ccc(-c2ccc(C(CC3CCOCC3)c3ccc(S(=O)(=O)C4CC4)cc3)[nH]2)nc1` (stereo not drawn) [Example 117, 1-{[6-(5-{1-[4-(cyclopropylsulfonyl)phenyl]-2-(tetrahydro-2H-pyran-4-yl)ethyl}-1H-pyrrol-2-yl)pyridin-3-yl]oxy}propan-2-ol] gave a melting point of 116 to 118 °C. Turning to `COC(=O)c1ccc(-c2ccc(C(CC3CCOCC3)c3ccc(S(=O)(=O)C4CC4)cc3)[nH]2)nc1` (stereo not drawn) [Example 118, Methyl 6-(5-{1-[4-(cyclopropylsulfonyl)phenyl]-2-(tetrahydro-2H-pyran-4-yl)ethyl}-1H-pyrrol-2-yl)pyridine-3-carboxylate], the melting point lay in the range of 150 to 152 °C. Then `O=C(NC1CC1)c1ccc(-c2ccc(C(CC3CCOCC3)c3ccc(S(=O)(=O)C4CC4)cc3)[nH]2)nc1` (stereo not drawn) [Example 119, N-cyclopropyl-6-(5-{1-[4-(cyclopropylsulfonyl)phenyl]-2-(tetrahydro-2H-pyran-4-yl)ethyl}-1H-pyrrol-2-yl)pyridine-3-carboxamide], with 134 to 136 °C; and `O=C(c1ccc(-c2ccc(C(CC3CCOCC3)c3ccc(S(=O)(=O)C4CC4)cc3)[nH]2)nc1)N1CCC1` (stereo not drawn) [Example 120], with 109 to 110 °C. Then `O=C(c1ccc(-c2ccc(C(CC3CCOCC3)c3ccc(S(=O)(=O)C4CC4)cc3)[nH]2)nc1)N1CCOCC1` (stereo not drawn) [Example 121, 5-(morpholin-4-ylcarbonyl)-2-(5-[1-[4-(cyclopropylsulfonyl)phenyl]-2-(tetrahydro-2H-pyran-4-yl)ethyl]-1H-pyrrol-2-yl)pyridine], with 114 to 116 °C; and `CCOCCNC(=O)c1ccc(-c2ccc(C(CC3CCOCC3)c3ccc(S(=O)(=O)C4CC4)cc3)[nH]2)nc1` (stereo not drawn) [Example 122, 6-(5-{1-[4-(cyclopropylsulfonyl)phenyl]-2-(tetrahydro-2H-pyran-4-yl)ethyl}-1H-pyrrol-2-yl)-N-(2-ethoxyethyl)pyridine-3-carboxamide], with 87 to 90 °C. Then `CC(C)(O)CNC(=O)c1ccc(-c2ccc(C(CC3CCOCC3)c3ccc(S(=O)(=O)C4CC4)cc3)[nH]2)nc1` (stereo not drawn) [Example 123, 6-(5-[1-[4-(cyclopropylsulfonyl)phenyl]-2-(tetrahydro-2H-pyran-4-yl)ethyl]-1H-pyrrol-2-yl)-N-(2-hydroxy-2-methylpropyl)pyridine-3-carboxamide], with 126 to 128 °C. In the case of `NC(=O)c1ccc(-c2ccc(C(CC3CCOCC3)c3ccc(S(=O)(=O)C4CC4)cc3)[nH]2)nc1` (stereo not drawn) [Example 124, 6-(5-{1-[4-(cyclopropylsulfonyl)phenyl]-2-(tetrahydro-2H-pyran-4-yl)ethyl}-1H-pyrrol-2-yl)pyridine-3-carboxamide], the melting point lay in the range of 136 to 138 °C. Then `CC(C)(O)c1ccc(-c2ccc(C(CC3CCOCC3)c3ccc(S(=O)(=O)C4CC4)cc3)[nH]2)nc1` (stereo not drawn) [Example 125, 2-[6-(5-{1-[4-(cyclopropylsulfonyl)phenyl]-2-(tetrahydro-2H-pyran-4-yl)ethyl}-1H-pyrrol-2-yl)pyridin-3-yl]propan-2-ol], with 112 to 114 °C; and `CC(C)=Cc1ccc(-c2ccc(C(CC3CCOCC3)c3ccc(S(=O)(=O)C4CC4)cc3)[nH]2)nc1` (stereo not drawn) [Example 126, 2-(5-{1-[4-(cyclopropylsulfonyl)phenyl]-2-(tetrahydro-2H-pyran-4-yl)ethyl}-1H-pyrrol-2-yl)-5-(2-methylprop-1-en-1-yl)pyridine], with 114 to 116 °C.

Usually melting point stands for the temperature of the solid-liquid transition.
